For orientation: inhibition means the percentage by which the read-out fell short of the control.

Holding throughout (assay): biochemical
Common to all, as to set-up: KINOMEscan competition binding panel (Eurofins DiscoverX), single concentration, percent inhibition
Common to all, as to conditions: read-out: 15 at 1 µM % inhibition

Assay [1] concerns the target ERBB2 (Homo sapiens, UniProt P04626). The gist of the method:
(§1)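 Binding was profiled in the KINOMEscan panel of over 400 human kinases, with each compound tested at a single concentration of 1 µM to map selectivity.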

Assay [2] has as its target FLT3(D835H) (Homo sapiens, UniProt P36888, D835H). In short, it runs like this:
as §1

Assay [3] addresses T1, JAK1(JH1domain-catalytic) (Homo sapiens, UniProt P23458).
T1 construct: JH1domain-catalytic
The gist of the method:
as §1

The target of assay [4] is T2, RSK4(Kin.Dom.1-N-terminal) (Homo sapiens, UniProt Q9UK32).
T2 construct: gene RPS6KA6; Kin.Dom.1-N-terminal
The gist of the method: as §1

Assay [5] addresses T3, AMPK-alpha1 (Homo sapiens, UniProt Q13131).
T3 construct: gene PRKAA1
The gist of the method:
as §1

The target of assay [6] is PIK3CA(I800L) (Homo sapiens, UniProt P42336, I800L). The gist of the method: as §1
Assay [7] deals with MKNK2 (Homo sapiens, UniProt Q9HBH9). In short, it runs like this: as §1
Assay [8] has as its target RIOK1 (Homo sapiens, UniProt Q9BRS2). In short, it runs like this: as §1
Assay [9] concerns the target CSNK1G2 (Homo sapiens, UniProt P78368). In short, it runs like this: as §1
For assay [10], the target named is EGFR(E746-A750del) (Homo sapiens, UniProt P00533, DEL746-750). The gist of the method: as §1
Assay [11] has as its target FLT3(N841I) (Homo sapiens, UniProt P36888, N841I). The gist of the method: as §1
Assay [12] has as its target KIT(A829P) (Homo sapiens, UniProt P10721, A829P). The gist of the method:
as §1

In assay [13] the target is PDPK1 (Homo sapiens, UniProt O15530). In short, it runs like this:
as §1

Assay [14] addresses EGFR(G719S) (Homo sapiens, UniProt P00533, G719S). In short, it runs like this: as §1
Assay [15] deals with HIPK1 (Homo sapiens, UniProt Q86Z02). In short, it runs like this: as §1
For assay [16], the target named is PAK1 (Homo sapiens, UniProt Q13153). In short, it runs like this:
as §1

Assay [17] deals with T4, CDK4-cyclinD3 (Homo sapiens, UniProt P11802).
T4 construct: cyclinD3
The gist of the method: as §1

For assay [18], the target named is GSK3A (Homo sapiens, UniProt P49840). The gist of the method:
as §1

The target in assay [19] is BMPR2 (Homo sapiens, UniProt Q13873). In short, it runs like this: as §1
For assay [20], the target named is MKNK1 (Homo sapiens, UniProt Q9BUB5). The gist of the method:
as §1

Assay [21] deals with PRKCH (Homo sapiens, UniProt P24723). In short, it runs like this: as §1
Assay [22] has as its target ULK2 (Homo sapiens, UniProt Q8IYT8). In short, it runs like this: as §1
Assay [23] has as its target TNK1 (Homo sapiens, UniProt Q13470). The gist of the method: as §1
For assay [24], the target named is NEK2 (Homo sapiens, UniProt P51955). The gist of the method: as §1

BMPR2, sequence (Q13873 whole entry): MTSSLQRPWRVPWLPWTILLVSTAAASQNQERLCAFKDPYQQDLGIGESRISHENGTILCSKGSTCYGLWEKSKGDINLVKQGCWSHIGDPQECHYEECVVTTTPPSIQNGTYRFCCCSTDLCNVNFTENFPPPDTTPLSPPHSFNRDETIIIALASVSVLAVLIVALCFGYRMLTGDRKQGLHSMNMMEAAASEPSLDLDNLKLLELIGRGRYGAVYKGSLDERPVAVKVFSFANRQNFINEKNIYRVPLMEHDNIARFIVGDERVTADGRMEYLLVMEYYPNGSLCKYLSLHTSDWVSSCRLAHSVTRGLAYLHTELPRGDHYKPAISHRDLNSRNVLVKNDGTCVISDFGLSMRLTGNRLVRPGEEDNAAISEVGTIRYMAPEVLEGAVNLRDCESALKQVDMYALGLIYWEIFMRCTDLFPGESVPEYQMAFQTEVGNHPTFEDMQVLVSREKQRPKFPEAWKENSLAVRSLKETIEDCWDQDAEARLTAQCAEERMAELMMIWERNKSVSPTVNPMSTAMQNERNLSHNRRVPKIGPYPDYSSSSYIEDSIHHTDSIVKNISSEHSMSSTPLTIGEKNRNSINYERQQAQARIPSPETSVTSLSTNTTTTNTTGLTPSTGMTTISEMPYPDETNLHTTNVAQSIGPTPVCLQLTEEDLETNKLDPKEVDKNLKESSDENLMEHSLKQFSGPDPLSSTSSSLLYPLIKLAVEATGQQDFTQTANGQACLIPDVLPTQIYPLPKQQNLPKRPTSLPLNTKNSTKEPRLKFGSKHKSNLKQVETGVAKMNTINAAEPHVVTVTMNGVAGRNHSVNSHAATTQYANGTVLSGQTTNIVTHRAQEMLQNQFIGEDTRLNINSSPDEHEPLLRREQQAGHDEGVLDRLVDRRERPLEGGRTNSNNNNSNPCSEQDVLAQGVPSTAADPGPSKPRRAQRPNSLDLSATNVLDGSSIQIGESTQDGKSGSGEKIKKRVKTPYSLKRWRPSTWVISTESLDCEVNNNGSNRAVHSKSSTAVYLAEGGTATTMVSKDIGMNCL
T1 sequence (P23458 whole entry): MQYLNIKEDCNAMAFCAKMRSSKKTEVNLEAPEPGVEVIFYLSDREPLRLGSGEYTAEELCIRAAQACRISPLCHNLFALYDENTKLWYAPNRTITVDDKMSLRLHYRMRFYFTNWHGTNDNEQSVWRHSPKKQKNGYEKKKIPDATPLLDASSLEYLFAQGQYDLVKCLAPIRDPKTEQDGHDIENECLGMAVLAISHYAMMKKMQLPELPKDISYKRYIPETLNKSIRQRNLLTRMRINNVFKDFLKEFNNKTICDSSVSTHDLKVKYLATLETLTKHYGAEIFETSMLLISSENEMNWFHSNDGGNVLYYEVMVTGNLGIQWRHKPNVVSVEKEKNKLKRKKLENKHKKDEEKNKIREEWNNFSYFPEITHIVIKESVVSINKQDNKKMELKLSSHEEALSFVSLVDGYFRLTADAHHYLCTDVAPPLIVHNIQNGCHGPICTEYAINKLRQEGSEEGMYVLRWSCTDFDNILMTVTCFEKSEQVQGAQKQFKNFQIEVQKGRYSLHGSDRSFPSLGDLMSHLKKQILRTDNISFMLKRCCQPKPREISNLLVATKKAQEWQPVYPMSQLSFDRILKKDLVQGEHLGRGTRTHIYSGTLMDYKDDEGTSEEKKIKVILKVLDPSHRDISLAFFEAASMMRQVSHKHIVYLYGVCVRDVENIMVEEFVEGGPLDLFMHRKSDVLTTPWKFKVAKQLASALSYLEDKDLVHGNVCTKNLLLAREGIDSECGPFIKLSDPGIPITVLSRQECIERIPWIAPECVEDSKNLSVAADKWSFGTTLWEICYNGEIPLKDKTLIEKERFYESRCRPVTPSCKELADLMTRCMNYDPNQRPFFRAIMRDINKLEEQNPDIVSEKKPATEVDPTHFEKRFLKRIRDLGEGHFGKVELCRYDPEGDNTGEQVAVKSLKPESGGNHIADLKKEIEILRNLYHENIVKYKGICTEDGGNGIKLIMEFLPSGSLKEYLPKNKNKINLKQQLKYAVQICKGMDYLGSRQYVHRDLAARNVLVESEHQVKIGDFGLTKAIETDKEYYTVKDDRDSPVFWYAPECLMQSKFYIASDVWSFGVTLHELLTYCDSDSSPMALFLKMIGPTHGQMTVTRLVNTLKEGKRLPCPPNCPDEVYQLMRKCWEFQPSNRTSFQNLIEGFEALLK
TNK1, sequence (Q13470 whole entry): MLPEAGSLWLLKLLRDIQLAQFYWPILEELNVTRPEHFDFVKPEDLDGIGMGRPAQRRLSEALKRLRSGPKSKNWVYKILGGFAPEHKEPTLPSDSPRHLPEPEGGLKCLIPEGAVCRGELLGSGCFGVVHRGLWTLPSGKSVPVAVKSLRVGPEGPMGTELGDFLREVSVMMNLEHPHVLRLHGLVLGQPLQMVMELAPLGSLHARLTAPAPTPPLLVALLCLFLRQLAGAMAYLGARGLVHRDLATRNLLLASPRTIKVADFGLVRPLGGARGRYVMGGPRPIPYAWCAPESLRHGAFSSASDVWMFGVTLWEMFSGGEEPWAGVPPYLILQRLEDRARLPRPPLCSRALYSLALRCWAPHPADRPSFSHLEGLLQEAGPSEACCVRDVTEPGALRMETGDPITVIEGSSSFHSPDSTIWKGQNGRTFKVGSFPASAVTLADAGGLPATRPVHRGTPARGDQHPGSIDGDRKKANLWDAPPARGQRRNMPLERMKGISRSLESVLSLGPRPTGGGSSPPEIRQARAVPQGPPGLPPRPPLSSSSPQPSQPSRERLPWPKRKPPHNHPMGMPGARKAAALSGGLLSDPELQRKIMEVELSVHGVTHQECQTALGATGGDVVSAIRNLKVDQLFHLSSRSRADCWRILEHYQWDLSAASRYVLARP
KIT(A829P), sequence (P10721 whole entry A829P): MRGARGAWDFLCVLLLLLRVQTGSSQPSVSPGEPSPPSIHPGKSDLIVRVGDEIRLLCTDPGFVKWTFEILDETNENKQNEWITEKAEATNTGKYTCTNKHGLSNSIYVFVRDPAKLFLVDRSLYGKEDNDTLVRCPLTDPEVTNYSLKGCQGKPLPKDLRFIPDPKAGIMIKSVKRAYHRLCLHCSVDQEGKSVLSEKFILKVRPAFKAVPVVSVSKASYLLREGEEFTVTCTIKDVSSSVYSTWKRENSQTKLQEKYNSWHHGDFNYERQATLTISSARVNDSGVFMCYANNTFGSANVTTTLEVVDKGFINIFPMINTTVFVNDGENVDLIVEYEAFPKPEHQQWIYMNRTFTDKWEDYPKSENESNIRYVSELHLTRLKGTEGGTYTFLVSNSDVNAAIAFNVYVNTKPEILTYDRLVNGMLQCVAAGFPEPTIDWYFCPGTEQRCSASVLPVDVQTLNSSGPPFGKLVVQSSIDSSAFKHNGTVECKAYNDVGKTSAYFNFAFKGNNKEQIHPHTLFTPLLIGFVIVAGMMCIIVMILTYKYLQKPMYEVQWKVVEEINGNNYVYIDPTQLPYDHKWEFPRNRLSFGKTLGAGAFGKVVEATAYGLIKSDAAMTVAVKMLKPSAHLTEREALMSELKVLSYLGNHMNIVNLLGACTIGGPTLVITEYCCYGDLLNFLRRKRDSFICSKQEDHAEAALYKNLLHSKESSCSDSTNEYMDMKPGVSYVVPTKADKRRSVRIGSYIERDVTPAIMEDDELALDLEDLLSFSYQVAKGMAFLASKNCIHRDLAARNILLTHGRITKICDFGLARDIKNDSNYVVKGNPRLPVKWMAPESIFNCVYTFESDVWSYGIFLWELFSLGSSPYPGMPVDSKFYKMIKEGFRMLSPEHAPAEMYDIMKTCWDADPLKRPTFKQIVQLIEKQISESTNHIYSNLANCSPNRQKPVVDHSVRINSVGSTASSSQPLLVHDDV
CSNK1G2, sequence (P78368 whole entry): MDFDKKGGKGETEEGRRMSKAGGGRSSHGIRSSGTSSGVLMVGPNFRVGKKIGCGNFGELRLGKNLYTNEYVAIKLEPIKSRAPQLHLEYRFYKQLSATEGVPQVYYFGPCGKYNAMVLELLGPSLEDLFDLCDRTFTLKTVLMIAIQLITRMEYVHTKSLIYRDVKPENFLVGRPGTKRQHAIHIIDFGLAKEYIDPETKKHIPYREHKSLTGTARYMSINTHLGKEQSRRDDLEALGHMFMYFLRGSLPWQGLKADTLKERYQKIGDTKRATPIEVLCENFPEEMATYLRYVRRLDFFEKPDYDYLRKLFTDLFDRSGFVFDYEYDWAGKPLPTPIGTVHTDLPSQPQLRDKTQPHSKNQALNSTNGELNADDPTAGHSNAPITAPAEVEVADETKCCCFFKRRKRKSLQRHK
PDPK1, sequence (O15530 whole entry): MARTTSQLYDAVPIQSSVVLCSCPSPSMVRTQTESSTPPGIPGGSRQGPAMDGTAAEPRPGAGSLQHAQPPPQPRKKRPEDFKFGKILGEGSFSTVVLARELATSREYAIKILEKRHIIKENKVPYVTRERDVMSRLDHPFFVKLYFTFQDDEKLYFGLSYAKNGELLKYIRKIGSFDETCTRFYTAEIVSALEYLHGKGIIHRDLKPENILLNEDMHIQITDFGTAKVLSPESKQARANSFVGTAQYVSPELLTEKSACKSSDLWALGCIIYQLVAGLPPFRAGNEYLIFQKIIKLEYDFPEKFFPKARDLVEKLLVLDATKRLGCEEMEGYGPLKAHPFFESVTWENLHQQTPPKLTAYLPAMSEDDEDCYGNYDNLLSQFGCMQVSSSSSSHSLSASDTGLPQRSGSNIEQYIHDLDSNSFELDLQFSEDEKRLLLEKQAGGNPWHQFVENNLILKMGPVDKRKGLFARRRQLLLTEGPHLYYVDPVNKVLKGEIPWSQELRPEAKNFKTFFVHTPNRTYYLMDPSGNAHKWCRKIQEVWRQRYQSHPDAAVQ

For `CNS(=O)(=O)c1ccc(N(C)C)c(Nc2nc(C)nc3cc(OC)c(OC)cc23)c1` [compound 15, 3-((6,7-dimethoxy-2-methylquinazolin-4-yl)amino)-4-(dimethylamino)-N-methylbenzenesulfonamide], the inhibition at 1 µM worked out at 1% in assay [1]; 10% in assay [2]; 0% in assay [3]; 30% in [4]; 1% in assay [5]; 38% in assay [6]. For the same compound, the inhibition at 1 µM in [7] came to 38%; in assay [8] it was 0%; in assay [9] it was 0%; in [10], 31%; in assay [11], 0%; in assay [12] it was 42%. For the same compound, the inhibition at 1 µM came to 0% in assay [13]; 0% in assay [14]; 7% in assay [15]; 1% in assay [16]; 15% in [17]; 0% in assay [18]. Also, the inhibition at 1 µM stood at 21% in [19]; 4% in [20]; 0% in assay [21]; 9% in [22]; 35% in [23]; 1% in assay [24].

For the origin of these results see publication PMC7180948, “New Insights into 4-Anilinoquinazolines as Inhibitors of Cardiac Troponin I–Interacting Kinase (TNNi3K)” (Molecules, 2020).
